Measurements taken from patent US8642788B2, “Activators of executioner procaspases 3, 6 and 7” (The Regents of the University of California, priority 2008, dated 2014).
Like-named read-outs stand apart in the source and are kept apart here.

Tests used:
Type in all cases: biochemical
procaspase-6 = target: T1, procaspase-6 (Homo sapiens, UniProt P55212); test: Executioner procaspase-6 activation assay (Ac-VEID-AFC fluorogenic substrate); conditions: incubation with compound for 5 h at 37° C.; 100 nM procaspase
T1 sequence (P55212 1-293): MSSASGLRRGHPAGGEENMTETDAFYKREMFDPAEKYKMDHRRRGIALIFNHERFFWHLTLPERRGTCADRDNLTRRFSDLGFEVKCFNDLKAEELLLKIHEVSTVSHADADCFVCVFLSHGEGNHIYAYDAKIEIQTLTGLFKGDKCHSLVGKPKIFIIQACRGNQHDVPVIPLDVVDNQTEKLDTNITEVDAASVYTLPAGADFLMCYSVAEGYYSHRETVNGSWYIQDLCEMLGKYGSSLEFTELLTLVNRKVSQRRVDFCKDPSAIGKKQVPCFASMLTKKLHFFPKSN
Method in brief: (§1)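 Procaspase at 100 nM incubated with compound (100 nM–100 μM) in 50 mM HEPES pH 7.4, KCl, DTT, 0.01% Triton X-100, 3% DMSO, 37 °C for 5 h; then 25 μM Ac-DEVD-AFC (procaspase-7) or Ac-VEID-AFC (procaspase-6), kinetic fluorescence 30 min (ex 365/em 495); EC50 reported.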

procaspase-7 = target: T2, procaspase-7 (Homo sapiens, UniProt P55210); test: Executioner procaspase-7 activation assay (Ac-DEVD-AFC fluorogenic substrate); conditions: incubation with compound for 5 h at 37° C.; 100 nM procaspase
T2 construct: His6 (C); made in house; host or cells: E. coli BL21(DE3)RP, pET-21b
T2 sequence (P55210 1-303): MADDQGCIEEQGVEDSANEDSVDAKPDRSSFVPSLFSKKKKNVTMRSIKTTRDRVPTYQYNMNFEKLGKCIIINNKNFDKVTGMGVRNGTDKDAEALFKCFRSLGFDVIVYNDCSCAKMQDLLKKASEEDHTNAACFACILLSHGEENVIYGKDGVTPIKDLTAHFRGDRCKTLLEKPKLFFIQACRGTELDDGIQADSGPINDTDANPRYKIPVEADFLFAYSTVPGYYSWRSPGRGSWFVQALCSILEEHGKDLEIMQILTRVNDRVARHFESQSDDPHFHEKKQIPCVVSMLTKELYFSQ
Method in brief: as §1

procaspase-3 = target: T3, procaspase-3 (Homo sapiens, UniProt P42574); test: Executioner procaspase-3 activation assay (Ac-DEVD-AFC fluorogenic substrate)
T3 construct: His6 (C); made in house; host or cells: E. coli BL21(DE3)RP, pET-23b
T3 sequence (P42574 1-277): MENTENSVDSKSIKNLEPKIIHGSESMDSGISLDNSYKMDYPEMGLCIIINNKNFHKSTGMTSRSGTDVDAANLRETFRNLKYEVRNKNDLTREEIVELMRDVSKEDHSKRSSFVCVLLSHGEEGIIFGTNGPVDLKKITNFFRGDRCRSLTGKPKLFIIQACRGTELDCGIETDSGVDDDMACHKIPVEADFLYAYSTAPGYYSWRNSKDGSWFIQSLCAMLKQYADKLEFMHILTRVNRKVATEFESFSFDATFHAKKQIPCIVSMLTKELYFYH
Method in brief: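 Procaspase-3 at 100 nM was incubated with activating compounds (100 nM to 100 uM) in 50 mM HEPES pH 7.4, 50 mM KCl, 1 mM DTT and 0.01% Triton-X100, the detergent limiting aggregation artefacts. Protein, substrate and inhibitor were kept as frozen aliquots and thawed just before use.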

[1] = incubation with compound for 5 h at 37° C., 100 nM procaspase, read-out: Procaspase Activation 3

SMILES | EC50 (procaspase-6) [µM] | EC50 (procaspase-7) [µM] | EC50 (procaspase-3; [1]) [µM] | EC50 (procaspase-3) [µM]
N#Cc1cc(-c2cccc(NC(=O)c3cc4cccc(O)c4oc3=O)c2)ccc1F [compound 145, 8-Hydroxy-2-oxo-2H-chromene-3-carboxylic acid (3′-cyano-4′-fluoro-biphenyl-3-yl)-amide] | > 100 | > 100 | > 100 | –
O=C(Nc1cccc(-c2cnn(Cc3ccccc3)c2)c1)c1cc2cccc(O)c2oc1=O [compound 169, 8-Hydroxy-2-oxo-2H-chromene-3-carboxylic acid [3-(1-benzyl-1H-pyrazol-4-yl)-phenyl]-amide] | > 100 | > 100 | > 100 | –
N#Cc1ccccc1-c1cccc(NC(=O)c2cc3cccc(O)c3oc2=O)c1 [compound 89, 8-Hydroxy-2-oxo-2H-chromene-3-carboxylic acid (2′-cyano-biphenyl-3-yl)-amide] | > 100 | > 100 | > 100 | –
Cn1nccc1-c1cccc(NC(=O)c2cc3cccc(O)c3oc2=O)c1 [compound 151, 8-Hydroxy-2-oxo-2H-chromene-3-carboxylic acid [3-(2-methyl-2H-pyrazol-3-yl)-phenyl]-amide] | > 100 | 10 to 50 | 10 to 50 | –
O=C(Nc1cccc(-c2ccc(Oc3ccccc3)cc2)c1)c1cc2cccc(O)c2oc1=O [compound 59, 8-Hydroxy-2-oxo-2H-chromene-3-carboxylic acid (4′-phenoxy-biphenyl-3-yl)-amide] | > 100 | > 100 | > 100 | –
COc1cccc2cc(C(=O)Nc3cccc(-c4ccc5c(c4)OCO5)c3)c(=O)oc12 [compound 63, 8-Methoxy-2-oxo-2H-chromene-3-carboxylic acid (3-Benzo[1,3]dioxol-5-yl-phenyl)-amide] | > 100 | > 100 | > 100 | –
COc1cccc2cc(C(=O)Nc3cccc(-c4ccc(F)c(C#N)c4)c3)c(=O)oc12 [compound 146, 8-Methoxy-2-oxo-2H-chromene-3-carboxylic acid (3′-cyano-4′-fluoro-biphenyl-3-yl)-amide] | > 100 | > 100 | > 100 | –
O=C(Nc1cccc(-c2ccc3[nH]ccc3c2)c1)c1cc2cccc(O)c2oc1=O [compound 92, 8-Hydroxy-2-oxo-2H-chromene-3-carboxylic acid (3-(1H-Indol-5-yl)-phenyl)-amide] | > 100 | > 100 | – | > 100
COc1ccc2cc(-c3cccc(NC(=O)c4cc5cccc(OC)c5oc4=O)c3)ccc2c1 [compound 78, 8-Methoxy-2-oxo-2H-chromene-3-carboxylic acid [3-(6-methoxy-naphthalen-2-yl)-phenyl]-amide] | > 100 | > 100 | > 100 | –
COc1cccc2cc(C(=O)Nc3cccc(-c4ccccc4OC(F)(F)F)c3)c(=O)oc12 [compound 72, 8-Methoxy-2-oxo-2H-chromene-3-carboxylic acid (2′-trifluoromethoxy-biphenyl-3-yl)-amide] | > 100 | > 100 | > 100 | –
COc1ccc(-c2cccc(NC(=O)c3cc4cccc(OC(F)(F)F)c4oc3=O)c2)cc1C [compound 49, 8-Trifluoromethoxy-2-oxo-2H-chromene-3-carboxylic acid (4′-Methoxy-3′-methyl-biphenyl-3-yl)-amide] | > 100 | > 100 | > 100 | –
O=C(Nc1cccc(-c2ccc(Oc3ccccc3)cc2)c1)c1cc2cccc(OC(F)(F)F)c2oc1=O [compound 61, 8-Trifluoromethoxy-2-oxo-2H-chromene-3-carboxylic acid (4′-phenoxy-biphenyl-3-yl)-amide] | > 100 | > 100 | > 100 | –
O=C(Nc1cccc(-c2ccncc2)c1)c1cc2cccc(O)c2oc1=O [compound 19, 8-Hydroxy-2-oxo-2H-chromene-3-carboxylic acid (3-pyridin-4-yl-phenyl)-amide] | 0.5 to 10 | 50 to 200 | 0.5 to 10 | –
CCOc1ccc(-c2cccc(NC(=O)c3cc4cccc(OC(F)(F)F)c4oc3=O)c2)cc1 [compound 70, 8-Trifluoromethoxy-2-oxo-2H-chromene-3-carboxylic acid (4′-ethoxy-biphenyl-3-yl)-amide] | > 100 | > 100 | > 100 | –
O=C(Nc1cccc(-c2ccc3occc(=O)c3c2)c1)c1cc2cccc(O)c2oc1=O [compound 161, 8-Hydroxy-2-oxo-2H-chromene-3-carboxylic acid [3-(4-oxo-4H-chromen-6-yl)-phenyl]-amide] | > 100 | > 100 | 0.5 to 10 | –
COc1ccc(-c2cccc(NC(=O)c3cc4cccc(O)c4oc3=O)c2)c(OC)c1 [compound 50, 8-Hydroxy-2-oxo-2H-chromene-3-carboxylic acid (2′,4′-dimethoxy-biphenyl-3-yl)-amide] | > 100 | > 100 | > 100 | –
O=C(Nc1cccc(-c2ccccc2S(=O)(=O)N2CCOCC2)c1)c1cc2cccc(OC(F)(F)F)c2oc1=O [compound 100, 8-Trifluoromethoxy-2-oxo-2H-chromene-3-carboxylic acid (2′-(Morpholine-4-sulfonyl)-biphenyl-3-yl)-amide] | > 100 | > 100 | > 100 | –
O=C(Nc1cccc(-c2ccc3nonc3c2)c1)c1cc2cccc(O)c2oc1=O [compound 159, 8-Hydroxy-2-oxo-2H-chromene-3-carboxylic acid (3-benzo[1,2,5]oxadiazol-5-yl-phenyl)-amide] | > 100 | > 100 | > 100 | –
N#Cc1ccccc1-c1cccc(NC(=O)c2cc3cccc(OC(F)(F)F)c3oc2=O)c1 [compound 91, 8-Trifluoromethoxy-2-oxo-2H-chromene-3-carboxylic acid (2′-cyano-biphenyl-3-yl)-amide] | > 100 | > 100 | > 100 | –
CCOc1ccc(-c2cccc(NC(=O)c3cc4cccc(OC(F)(F)F)c4oc3=O)c2)cc1C [compound 67, 8-Trifluoromethoxy-2-oxo-2H-chromene-3-carboxylic acid (4′-ethoxy-3′-methyl-biphenyl-3-yl)-amide] | > 100 | > 100 | > 100 | –
COc1cccc2cc(C(=O)Nc3cccc(-c4cccnc4)c3)c(=O)oc12 [compound 18, 8-Methoxy-2-oxo-2H-chromene-3-carboxylic acid (3-pyridin-3-yl-phenyl)-amide] | > 100 | > 100 | > 100 | –
O=C(Nc1cccc(-c2ccccc2OC(F)(F)F)c1)c1cc2cccc(OC(F)(F)F)c2oc1=O [compound 73, 8-Trifluoromethoxy-2-oxo-2H-chromene-3-carboxylic acid (2′-trifluoromethoxy-biphenyl-3-yl)-amide] | > 100 | > 100 | > 100 | –
COc1cccc2cc(C(=O)Nc3cccc(-c4ccc5[nH]ccc5c4)c3)c(=O)oc12 [compound 93, 8-Methoxy-2-oxo-2H-chromene-3-carboxylic acid (3-(1H-Indol-5-yl)-phenyl)-amide] | > 100 | > 100 | – | > 100
COc1ccc(-c2cccc(NC(=O)c3cc4cccc(O)c4oc3=O)c2)cc1OC [compound 53, 8-Hydroxy-2-oxo-2H-chromene-3-carboxylic acid (3′,4′-Dimethoxy-biphenyl-3-yl)-amide] | > 100 | 0.5 to 10 | > 100 | –
